This note sets out measurements from patent US20100204224A1, “AZACYCLIC COMPOUNDS AS INHIBITORS OF SENSORY NEURONE SPECIFIC SODIUM CHANNELS” (priority 2005, published 2010).

In general, IC50 refers to the concentration needed to halve the response being measured.

Where a name gives a salt, the structure may show the parent alone.

For this assay, the target named is T1, human Nav1.8 (hNav1.8) ion channel (Homo sapiens, UniProt Q9Y5Y9).
T1 construct: expressed in transfected cells
T1 sequence (Q9Y5Y9 whole entry): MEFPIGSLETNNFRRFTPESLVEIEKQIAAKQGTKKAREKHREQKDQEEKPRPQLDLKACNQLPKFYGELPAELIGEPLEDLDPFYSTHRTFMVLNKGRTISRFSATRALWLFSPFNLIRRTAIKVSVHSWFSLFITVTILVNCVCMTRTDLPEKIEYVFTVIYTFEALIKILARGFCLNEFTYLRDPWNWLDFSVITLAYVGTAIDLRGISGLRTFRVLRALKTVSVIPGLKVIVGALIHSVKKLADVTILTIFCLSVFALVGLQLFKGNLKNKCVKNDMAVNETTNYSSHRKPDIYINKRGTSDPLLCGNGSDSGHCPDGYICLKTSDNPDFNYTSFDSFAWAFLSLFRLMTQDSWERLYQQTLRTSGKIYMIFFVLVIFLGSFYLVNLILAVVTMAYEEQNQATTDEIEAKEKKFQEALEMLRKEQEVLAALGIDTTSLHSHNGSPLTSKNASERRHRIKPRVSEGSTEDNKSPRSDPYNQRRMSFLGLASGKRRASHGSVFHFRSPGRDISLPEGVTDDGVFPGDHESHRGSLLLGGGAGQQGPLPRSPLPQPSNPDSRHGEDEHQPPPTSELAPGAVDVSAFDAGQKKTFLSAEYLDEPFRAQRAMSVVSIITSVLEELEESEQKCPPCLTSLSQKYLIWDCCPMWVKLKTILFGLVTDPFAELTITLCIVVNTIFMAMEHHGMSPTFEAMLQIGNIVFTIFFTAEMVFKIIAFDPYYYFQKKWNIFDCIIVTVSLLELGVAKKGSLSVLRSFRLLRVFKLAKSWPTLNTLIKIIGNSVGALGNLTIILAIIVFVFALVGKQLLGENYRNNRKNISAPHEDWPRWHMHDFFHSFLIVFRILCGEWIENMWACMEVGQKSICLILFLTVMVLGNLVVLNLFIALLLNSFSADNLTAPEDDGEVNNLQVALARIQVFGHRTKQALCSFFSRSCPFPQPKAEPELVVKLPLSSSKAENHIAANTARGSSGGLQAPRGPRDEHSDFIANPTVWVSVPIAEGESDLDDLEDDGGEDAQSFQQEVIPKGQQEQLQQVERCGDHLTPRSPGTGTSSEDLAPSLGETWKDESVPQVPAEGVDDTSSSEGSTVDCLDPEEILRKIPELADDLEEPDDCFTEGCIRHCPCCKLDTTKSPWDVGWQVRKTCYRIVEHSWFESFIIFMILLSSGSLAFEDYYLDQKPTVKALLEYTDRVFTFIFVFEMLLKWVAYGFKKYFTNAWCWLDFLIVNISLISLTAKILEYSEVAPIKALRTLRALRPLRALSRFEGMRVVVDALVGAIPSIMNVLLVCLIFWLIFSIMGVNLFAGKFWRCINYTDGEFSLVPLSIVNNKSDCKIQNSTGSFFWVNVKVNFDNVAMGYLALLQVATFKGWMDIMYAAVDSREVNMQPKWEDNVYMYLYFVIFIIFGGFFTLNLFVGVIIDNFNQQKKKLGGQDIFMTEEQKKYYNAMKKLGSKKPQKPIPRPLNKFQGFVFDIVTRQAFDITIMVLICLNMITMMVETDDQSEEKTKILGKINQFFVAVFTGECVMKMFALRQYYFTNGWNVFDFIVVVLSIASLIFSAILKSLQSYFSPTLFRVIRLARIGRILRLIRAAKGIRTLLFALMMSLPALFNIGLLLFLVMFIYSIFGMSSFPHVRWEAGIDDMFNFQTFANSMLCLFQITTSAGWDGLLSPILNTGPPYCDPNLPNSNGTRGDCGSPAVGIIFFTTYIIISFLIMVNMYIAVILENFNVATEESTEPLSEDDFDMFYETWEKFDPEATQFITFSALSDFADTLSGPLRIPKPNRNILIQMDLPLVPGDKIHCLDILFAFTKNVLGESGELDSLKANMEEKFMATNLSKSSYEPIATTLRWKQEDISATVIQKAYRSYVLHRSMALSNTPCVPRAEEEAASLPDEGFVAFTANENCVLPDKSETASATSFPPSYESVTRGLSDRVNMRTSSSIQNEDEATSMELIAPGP
Description: Inhibition of human Nav1.8 stably expressed in SH-SY-5Y cells (membrane potential dye fluorescence assay). The assay is classed as cell-based. Conditions: SH-SY-5Y hNav1.8 cells; FLIPR membrane potential dye; 10 μM pyrethroid, 250 nM TTX; test concentration range 100 μM-0.05 μM; read-out: hNav1.8 IC50.
Turning to `CC(c1ccc(F)cc1)N1CC2CC1CN2C(=O)Nc1cccc(C(F)(F)F)c1` (stereo not shown) [Example 50, 5-[1-(4-Fluoro-phenyl)-ethyl]-2,5-diaza-bicyclo[2.2.1]heptane-2-carboxylic acid (3-trifluoromethyl-phenyl)-amide], the IC50 amounted to 2620 nM.
For `Cc1ccccc1C(C)N1CC2CC1CN2C(=O)Nc1ccc(OC2CCOCC2)cc1` (stereo not shown) [Example 22, 5-(1-o-Tolyl-ethyl)-2,5-diaza-bicyclo[2.2.1]heptane-2-carboxylic acid [4-(tetrahydro-pyran-4-yloxy)-phenyl]-amide], the IC50 amounted to 18900 nM.
For the compound `CC(c1ccc(Cl)cc1Cl)N1CC2CC1CN2C(=O)Nc1ccc(Oc2ccc(Cl)cc2)cc1` (stereo not shown) [Example 121, 5-[1-(2,4-Dichloro-phenyl)-ethyl]-2,5-diaza-bicyclo[2.2.1]heptane-2-carboxylic acid [4-(4-chloro-phenoxy)-phenyl]-amide], the IC50 was 22400 nM.
The value for `Cc1ccccc1CC(C)N1CC2CC1CN2C(=O)Nc1ccc(Oc2ccccc2)cc1` (stereo not shown) [Example 58, 5-(1-Methyl-2-o-tolyl-ethyl)-2,5-diaza-bicyclo[2.2.1]heptane-2-carboxylic acid (4-phenoxy-phenyl)-amide] was 230 nM; that for `O=C(Nc1ccc(Oc2ccc(F)cc2)cc1)N1CC2CC1CN2C1CCc2ccccc2C1` (stereo not shown) [Example 101, 5-(1,2,3,4-Tetrahydro-naphthalen-2-yl)-2,5-diaza-bicyclo[2.2.1]heptane-2-carboxylic acid [4-(4-fluoro-phenoxy)-phenyl]-amide methanesulfonate salt] was 340 nM.
The value for `O=C(Nc1ccc(Oc2ccc(F)cc2)cc1)N1CC2CC1CN2C1Cc2ccc(F)cc2C1` (stereo not shown) [Example 131, 5-(5-Fluoro-indan-2-yl)-2,5-diaza-bicyclo[2.2.1]heptane-2-carboxylic acid [4-(4-fluoro-phenoxy)-phenyl]-amide] was 550 nM.
Take `O=C(Nc1ccc(C(F)(F)F)cc1)N1CC2CC1CN2C1Cc2ccccc2C1` (stereo not shown) [Example 99, 5-Indan-2-yl-2,5-diaza-bicyclo[2.2.1]heptane-2-carboxylic acid (4-trifluoromethyl-phenyl)-amide]: the IC50 was 2380 nM.
With `COCCOCCOc1ccc(NC(=O)N2CC3CC2CN3C(C)c2ccccc2C)cc1` (stereo not shown) [Example 18, 5-(1-o-Tolyl-ethyl)-2,5-diaza-bicyclo[2.2.1]heptane-2-carboxylic acid {4-[2-(2-methoxy-ethoxy)-ethoxy]-phenyl}-amide], the IC50 was not below 30000 nM.
In the case of `CC(c1ccc(F)cc1)N1CC2CC1CN2C(=O)Nc1ccc(Oc2ccccc2)cc1` (stereo not shown) [Example 48, 5-[1-(4-Fluoro-phenyl)-ethyl]-2,5-diaza-bicyclo[2.2.1]heptane-2-carboxylic acid (4-phenoxy-phenyl)-amide], the IC50 came to 420 nM.
The value for `CC(c1ccc(Cl)cc1Cl)N1CC2CC1CN2C(=O)Nc1ccc(C(F)(F)F)cc1` (stereo not shown) [Example 120, 5-[1-(2,4-Dichloro-phenyl)-ethyl]-2,5-diaza-bicyclo[2.2.1]heptane-2-carboxylic acid (4-trifluoromethyl-phenyl)-amide] was 24500 nM.
